Legend:
[1] = test system: E. coli EC1061 (NDM-1 CMY-6); test: Aztreonam/Tigemonam MIC at various concentrations of BLI; format: cell-based; conditions: Escherichia coli, read-out: Aztreonam MIC (μg/ml) in the presence of BLI
Protocol: MIC values for each bacterial strain were measured for each antimicrobial compound at various concentrations of each BLI. […]

[2] = test system: K. pneumoniae KP1081 (NDM-1, CMY-6, SHV-11, CTX-M-15, TEM-1); test: as above; format: cell-based; conditions: Klebsiella pneumoniae, read-out: Aztreonam MIC (μg/ml) in the presence of BLI
Protocol: MIC values for each bacterial strain were measured for each antimicrobial compound at various concentrations of each BLI.

EC1007 KPC-3 = test: Dose titration biapenem potentiation assay (MPC1); format: cell-based, Escherichia coli; conditions: biapenem 1 μg/mL
Protocol: (§1) The potency and spectrum of β-lactamase inhibitors is also determined by assessing their biapenem potentiation activity in a dose titration potentiation assay using strains expressing serine carbapemenases (such as KPC). The potentiation effect is observed as the ability of BLI compounds to inhibit growth in the presence of sub-inhibitory concentration of biapenem. […] Biapenem is present in the test medium at 1 μg/mL. Compounds tested at the highest concentration of 40 μg/mL. […] Table 5 summarizes BLI potency of biapenem potentiation (MPC1). Biapenem MIC for each strain is also shown.

ECL1004 NMC-A = test: Dose titration biapenem potentiation assay (MPC1); format: cell-based, Enterobacter cloacae; conditions: biapenem 1 μg/mL
Protocol: as §1

KP1008 KPC-2 = test: Dose titration biapenem potentiation assay (MPC1); format: cell-based, Klebsiella pneumoniae; conditions: biapenem 1 μg/mL
Protocol: as §1

KP1004 KPC-2 = test: Dose titration biapenem potentiation assay (MPC1); format: cell-based, Klebsiella pneumoniae; conditions: biapenem 1 μg/mL
Protocol: as §1

SMILES: C[C@H]1[C@H](NC(=O)/C(=N\OC(C)(C)C(=O)O)c2csc(N)n2)C(=O)N1S(=O)(=O)O [Aztreonam, reference compound]
- MIC [1]: 16 µg/mL
- MIC [2]: 256 µg/mL

SMILES: NC1(CC(=O)N[C@H]2CC[C@@H](CC(=O)O)OB2O)CCCCC1 [Compound 51, 2-((3R,6S)-3-(2-(1-aminocyclohexyl)acetamido)-2-hydroxy-1,2-oxaborinan-6-yl)acetic acid]
- BPM MPC1 EC1007 KPC-3 (EC1007 KPC-3): X (X = MPC1 of less than 1 μg/mL.)
- BPM MPC1 ECL1004 NMC-A (ECL1004 NMC-A): Y (Y = MPC1 of 1 μg/mL to 5 μg/mL.)
- BPM MPC1 KP1008 KPC-2 (KP1008 KPC-2): X (X = MPC1 of less than 1 μg/mL.)
- BPM MPC1 KP1004 KPC-2 (KP1004 KPC-2): X (X = MPC1 of less than 1 μg/mL.)

SMILES: O=C(O)C[C@@H]1CC[C@H](NC(=O)C[C@H]2CCCCN2)B(O)O1 [Compound 52, 2-((3R,6S)-2-hydroxy-3-(2-((R)-piperidin-2-yl)acetamido)-1,2-oxaborinan-6-yl)acetic acid]
- BPM MPC1 EC1007 KPC-3 (EC1007 KPC-3): X (X = MPC1 of less than 1 μg/mL.)
- BPM MPC1 ECL1004 NMC-A (ECL1004 NMC-A): Y (Y = MPC1 of 1 μg/mL to 5 μg/mL.)
- BPM MPC1 KP1008 KPC-2 (KP1008 KPC-2): X (X = MPC1 of less than 1 μg/mL.)
- BPM MPC1 KP1004 KPC-2 (KP1004 KPC-2): X (X = MPC1 of less than 1 μg/mL.)

SMILES: O=C(O)C[C@@H]1CC[C@H](NC(=O)C[C@@H]2CCCCN2)B(O)O1 [Compound 53, 2-((3R,6S)-2-hydroxy-3-(2-((S)-piperidin-2-yl)acetamido)-1,2-oxaborinan-6-yl)acetic acid]
- BPM MPC1 EC1007 KPC-3 (EC1007 KPC-3): X (X = MPC1 of less than 1 μg/mL.)
- BPM MPC1 ECL1004 NMC-A (ECL1004 NMC-A): Y (Y = MPC1 of 1 μg/mL to 5 μg/mL.)
- BPM MPC1 KP1008 KPC-2 (KP1008 KPC-2): X (X = MPC1 of less than 1 μg/mL.)
- BPM MPC1 KP1004 KPC-2 (KP1004 KPC-2): X (X = MPC1 of less than 1 μg/mL.)

SMILES: O=C(O)C[C@@H]1CC[C@H](NC(=O)Cn2ccnc2-c2ccccc2)B(O)O1 [Compound 54, 2-((3R,6S)-2-hydroxy-3-(2-(2-phenyl-1H-imidazol-1-yl)acetamido)-1,2-oxaborinan-6-yl)acetic acid]
- BPM MPC1 EC1007 KPC-3 (EC1007 KPC-3): X (X = MPC1 of less than 1 μg/mL.)
- BPM MPC1 ECL1004 NMC-A (ECL1004 NMC-A): X (X = MPC1 of less than 1 μg/mL.)
- BPM MPC1 KP1008 KPC-2 (KP1008 KPC-2): X (X = MPC1 of less than 1 μg/mL.)
- BPM MPC1 KP1004 KPC-2 (KP1004 KPC-2): X (X = MPC1 of less than 1 μg/mL.)

SMILES: Cc1nc2ccccc2n1CCC(=O)N[C@H]1CC[C@@H](CC(=O)O)OB1O [Compound 55]
- BPM MPC1 EC1007 KPC-3 (EC1007 KPC-3): X (X = MPC1 of less than 1 μg/mL.)
- BPM MPC1 ECL1004 NMC-A (ECL1004 NMC-A): X (X = MPC1 of less than 1 μg/mL.)
- BPM MPC1 KP1008 KPC-2 (KP1008 KPC-2): X (X = MPC1 of less than 1 μg/mL.)
- BPM MPC1 KP1004 KPC-2 (KP1004 KPC-2): X (X = MPC1 of less than 1 μg/mL.)

SMILES: O=C(O)C[C@@H]1CC[C@H](NC(=O)c2ccc(Cn3cnnn3)cc2)B(O)O1 [Compound 56, 2-((3R,6S)-3-(4-((1H-tetrazol-1-yl)methyl)benzamido)-2-hydroxy-1,2-oxaborinan-6-yl)acetic acid]
- BPM MPC1 EC1007 KPC-3 (EC1007 KPC-3): X (X = MPC1 of less than 1 μg/mL.)
- BPM MPC1 ECL1004 NMC-A (ECL1004 NMC-A): X (X = MPC1 of less than 1 μg/mL.)
- BPM MPC1 KP1008 KPC-2 (KP1008 KPC-2): X (X = MPC1 of less than 1 μg/mL.)
- BPM MPC1 KP1004 KPC-2 (KP1004 KPC-2): X (X = MPC1 of less than 1 μg/mL.)

SMILES: O=C(O)C[C@@H]1CC[C@H](NC(=O)Cc2ccccn2)B(O)O1 [Compound 57, 2-((3R,6S)-2-hydroxy-3-(2-(pyridin-2-yl)acetamido)-1,2-oxaborinan-6-yl)acetic acid]
- BPM MPC1 EC1007 KPC-3 (EC1007 KPC-3): X (X = MPC1 of less than 1 μg/mL.)
- BPM MPC1 ECL1004 NMC-A (ECL1004 NMC-A): X (X = MPC1 of less than 1 μg/mL.)
- BPM MPC1 KP1008 KPC-2 (KP1008 KPC-2): X (X = MPC1 of less than 1 μg/mL.)
- BPM MPC1 KP1004 KPC-2 (KP1004 KPC-2): X (X = MPC1 of less than 1 μg/mL.)

SMILES: C[C@]1(Cn2ccnn2)[C@H](C(=O)N[C@H]2CC[C@@H](CC(=O)O)OB2O)N2C(=O)C[C@H]2S1(=O)=O [Compound 59, 2-[(3R,6S)-2-hydroxy-3-[(2S,3S,5R)-3-methyl-4,4,7-trioxo-3-(1H-1,2,3-triazol-1-ylmethyl)-4λ^6-thia-1-azabicyclo[3.2.0]heptane-2-amido]-1,2-oxaborinan-6-yl]acetic acid]
- BPM MPC1 EC1007 KPC-3 (EC1007 KPC-3): X (X = MPC1 of less than 1 μg/mL.)
- BPM MPC1 ECL1004 NMC-A (ECL1004 NMC-A): X (X = MPC1 of less than 1 μg/mL.)
- BPM MPC1 KP1008 KPC-2 (KP1008 KPC-2): X (X = MPC1 of less than 1 μg/mL.)
- BPM MPC1 KP1004 KPC-2 (KP1004 KPC-2): Y (Y = MPC1 of 1 μg/mL to 5 μg/mL.)

SMILES: O=C(O)C[C@@H]1CC[C@H](NC(=O)CCc2nnc(-c3ccccc3)o2)B(O)O1 [Compound 60, 2-((3R,6S)-2-hydroxy-3-(3-(5-phenyl-1,3,4-oxadiazol-2-yl)propanamido)-1,2-oxaborinan-6-yl)acetic acid]
- BPM MPC1 EC1007 KPC-3 (EC1007 KPC-3): X (X = MPC1 of less than 1 μg/mL.)
- BPM MPC1 ECL1004 NMC-A (ECL1004 NMC-A): X (X = MPC1 of less than 1 μg/mL.)
- BPM MPC1 KP1008 KPC-2 (KP1008 KPC-2): X (X = MPC1 of less than 1 μg/mL.)
- BPM MPC1 KP1004 KPC-2 (KP1004 KPC-2): X (X = MPC1 of less than 1 μg/mL.)

SMILES: Nc1nc(/C(=N/OCc2cc(=O)c(O)cn2O)C(=O)N[C@H]2CC[C@@H](CC(=O)O)OB2O)cs1 [Compound 62, 2-((3R)-3-((Z)-2-(2-aminothiazol-4-yl)-2-((1,5-dihydroxy-4-oxo-1,4-dihydropyridin-2-yl)methoxyimino)acetamido)-2-hydroxy-1,2-oxaborinan-6-yl)acetic acid]
- BPM MPC1 EC1007 KPC-3 (EC1007 KPC-3): X (X = MPC1 of less than 1 μg/mL.)
- BPM MPC1 ECL1004 NMC-A (ECL1004 NMC-A): X (X = MPC1 of less than 1 μg/mL.)
- BPM MPC1 KP1008 KPC-2 (KP1008 KPC-2): X (X = MPC1 of less than 1 μg/mL.)
- BPM MPC1 KP1004 KPC-2 (KP1004 KPC-2): X (X = MPC1 of less than 1 μg/mL.)

SMILES: O=C(O)CC1CCC[C@H](NC(=O)Cc2cccs2)B(O)O1 (stereo partly drawn) [Compound 63, 2-((3R)-2-hydroxy-3-(2-(thiophen-2-yl)acetamido)-1,2-oxaborepan-7-yl)acetic acid]
- BPM MPC1 EC1007 KPC-3 (EC1007 KPC-3): Y (Y = MPC1 of 1 μg/mL to 5 μg/mL.)
- BPM MPC1 ECL1004 NMC-A (ECL1004 NMC-A): Y (Y = MPC1 of 1 μg/mL to 5 μg/mL.)
- BPM MPC1 KP1008 KPC-2 (KP1008 KPC-2): X (X = MPC1 of less than 1 μg/mL.)
- BPM MPC1 KP1004 KPC-2 (KP1004 KPC-2): Y (Y = MPC1 of 1 μg/mL to 5 μg/mL.)

SMILES: O=C(O)CC1C=CC[C@H](NC(=O)Cc2cccs2)B(O)O1 (stereo partly drawn) [Compound 64, 2-((3R)-2-hydroxy-3-(2-(thiophen-2-yl)acetamido)-2,3,4,7-tetrahydro-1,2-oxaborepin-7-yl)acetic acid]
- BPM MPC1 EC1007 KPC-3 (EC1007 KPC-3): X (X = MPC1 of less than 1 μg/mL.)
- BPM MPC1 ECL1004 NMC-A (ECL1004 NMC-A): X (X = MPC1 of less than 1 μg/mL.)
- BPM MPC1 KP1008 KPC-2 (KP1008 KPC-2): X (X = MPC1 of less than 1 μg/mL.)
- BPM MPC1 KP1004 KPC-2 (KP1004 KPC-2): Y (Y = MPC1 of 1 μg/mL to 5 μg/mL.)

SMILES: CCOC(=O)C[C@@H]1CC[C@H](NC(=O)Cc2cccs2)B(O)O1 [Compound 65, ethyl 2-((3R,6S)-2-hydroxy-3-(2-(thiophen-2-yl)acetamido)-1,2-oxaborinan-6-yl)acetate]
- BPM MPC1 EC1007 KPC-3 (EC1007 KPC-3): Y (Y = MPC1 of 1 μg/mL to 5 μg/mL.)
- BPM MPC1 ECL1004 NMC-A (ECL1004 NMC-A): Z (Z = MPC1 of greater than 5 μg/mL.)
- BPM MPC1 KP1008 KPC-2 (KP1008 KPC-2): X (X = MPC1 of less than 1 μg/mL.)
- BPM MPC1 KP1004 KPC-2 (KP1004 KPC-2): Y (Y = MPC1 of 1 μg/mL to 5 μg/mL.)

SMILES: O=C(O)C[C@@H]1CC[C@H](NC(=O)Cc2cc(F)cc(F)c2)B(O)O1 [Compound 66, 2-((3R,6S)-3-(2-(3,5-difluorophenyl)acetamido)-2-hydroxy-1,2-oxaborinan-6-yl)acetic acid]
- BPM MPC1 EC1007 KPC-3 (EC1007 KPC-3): X (X = MPC1 of less than 1 μg/mL.)
- BPM MPC1 ECL1004 NMC-A (ECL1004 NMC-A): X (X = MPC1 of less than 1 μg/mL.)
- BPM MPC1 KP1008 KPC-2 (KP1008 KPC-2): X (X = MPC1 of less than 1 μg/mL.)
- BPM MPC1 KP1004 KPC-2 (KP1004 KPC-2): X (X = MPC1 of less than 1 μg/mL.)

From patent US20150119363A1, “METHODS OF TREATING BACTERIAL INFECTIONS” (Rampex Pharmaceuticals, Inc., priority 2012, published 2015)
